Data reported in US4958010A, “Epipodophyllotoxin glucoside lactam derivatives” (Bristol-Myers Company, priority 1989, dated 1990).
“And” between values parts separate entries of the source, which are not always exact repeats. Equal entries are not always repeated.

Legend:
B16-F10 murine melanoma = assay: in vitro cytotoxicity assay, B16-F10 murine melanoma; assay type: cell-based; conditions: concentration required to inhibit cell growth by 50%, four-fold serial dilution, replicate determinations on separate lines
Protocol: (§1) Representative compounds of the present invention were also evaluated in in vitro cytotoxicity assay against various murine and human tumor cell lines. The in vitro cytotoxicity assay involved growing various mammalian tumor cells, including human tumor cells, on microtitre plates employing established tissue culture methods. The concentration of each compound required to inhibit cell growth by 50% (IC50) was then determined by four-fold serial dilution technique. Tumor cells of the following types were employed for each compound tested: B16-F10 murine melanoma; Moser human colon; SW900 human lung; and two human colon tumor cell lines namely HCT-116, and HCT/VP35, the latter being resistant to etoposide (VP). […] The in vitro data may also be evaluated in terms of potency ratio which is defined as the ratio of IC50 against an etoposide-resistant cell-line to IC50 against an etoposide-sensitive cell-line.

Moser human colon = assay: in vitro cytotoxicity assay, Moser human colon; assay type: cell-based; conditions: concentration required to inhibit cell growth by 50%, four-fold serial dilution, replicate determinations on separate lines
Protocol: as §1

HCT-116 = assay: in vitro cytotoxicity assay, HCT-116 human colon tumor; assay type: cell-based; conditions: concentration required to inhibit cell growth by 50%, four-fold serial dilution, replicate determinations on separate lines
Protocol: as §1

[1] = cited from earlier work
P388 leukemia = assay: antitumor activity against intravenously implanted P388 leukemia in BDF1 female mice; assay type: in vivo, murine (BDF1 female mice); conditions: 10^6 P388 cells i.v., etoposide i.p., 125 mg/kg/dose, 64 days
Protocol: Compound of Example 15 was evaluated against intravenously implanted P388 leukemia (10^6 cells) in BDF1 female mice. The test compound was administered intravenously at various dose levels to groups of six mice on days 5 and 8; the positive control, etoposide, was given intraperitoneally. The experiment lasted 64 days.

HCT/VP35 = assay: in vitro cytotoxicity assay, HCT/VP35 human colon tumor resistant to etoposide; assay type: cell-based; conditions: etoposide-resistant line, concentration required to inhibit cell growth by 50%, four-fold serial dilution, replicate determinations on separate lines
Protocol: as §1

SW900 human lung = assay: in vitro cytotoxicity assay, SW900 human lung; assay type: cell-based; conditions: concentration required to inhibit cell growth by 50%, four-fold serial dilution, replicate determinations on separate lines
Protocol: as §1

What does the source list for COc1cc([C@@H]2c3cc4c(cc3[C@@H](O[C@@H]3O[C@@H]5CO[C@@H](C)O[C@H]5[C@H](O)[C@H]3O)[C@H]3COC(=O)[C@H]23)OCO4)cc(OC)c1O [etoposide, reference compound]?
IC50 B16-F10 (B16-F10 murine melanoma): 16.75 µg/mL and 19.47 µg/mL and 27.72 µg/mL and 30.38 µg/mL and 9.96 µg/mL and 5.80 µg/mL; IC50 B16-F10 (B16-F10 murine melanoma; listed as Etoposide): 19.36 µg/mL and 51.93 µg/mL and 62.19 µg/mL; IC50 Moser (Moser human colon): 121.73 µg/mL and 163.19 µg/mL and 208.30 µg/mL and 209.76 µg/mL and 65.72 µg/mL and 54.09 µg/mL; IC50 Moser (Moser human colon; listed as Etoposide): 94.51 µg/mL and 97.83 µg/mL and 116.41 µg/mL; IC50 HCT-116 (HCT-116): 14.78 µg/mL and 20.54 µg/mL and 38.03 µg/mL and 41.01 µg/mL and 3.86 µg/mL and 6.57 µg/mL; IC50 HCT-116 (HCT-116; listed as Etoposide): 15.21 µg/mL and 30.12 µg/mL and 51.27 µg/mL; in vivo metabolism [1]: extensively metabolized to the open ring hydroxy acid; max. % T/C (positive control) (P388 leukemia): > 753 % T/C; IC50 HCT/VP35 (HCT/VP35): 122.79 µg/mL and 184.01 µg/mL and 98.33 µg/mL and 142.90 µg/mL and 79.06 µg/mL and 48.22 µg/mL; IC50 HCT/VP35 (HCT/VP35; listed as Etoposide): 16.31 µg/mL and 18.74 µg/mL and 140.63 µg/mL; IC50 SW900 (SW900 human lung): 201.94 µg/mL and 241.29 µg/mL and 243.49 µg/mL and > 500 µg/mL and 77.80 µg/mL and 54.59 µg/mL; IC50 SW900 (SW900 human lung; listed as Etoposide): 213.23 µg/mL and 241.88 µg/mL
